# Measured values: US20140377340A1, “HLA-DR BINDING PEPTIDES AND THEIR USES” (priority 2007, published 2014)
# Assays:
# [1] = target: T1, purified HLA DRB1*0101 (Homo sapiens, UniProt P01903+P01911, A100R/D57E/F55L/F60I/F76Y/I96L/L162R/M171V/P40L/Q125E/R42F/V115G/Y59C); experiment: HLA-DR radioligand binding inhibition assay, DRB1*0101; settings: read-out: IC50 nM purified HLA DRB1 *0101; purified HLA DRB1*0101
# T1 construct: purified from EBV transformed homozygous cell lines or single MHC allele transfected 721.221, C1R, or fibroblast lines; made in house
# In short: (§1)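 Bound radioactivity is read after 3-hour capture of complexes in 0.05% NP40/PBS on antibody-coated plates. Binding reactions pair 1-10 nM labeled peptide with 1 μM to 1 nM HLA-DR for two days.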
# [2] = target: T2, purified HLA DRB1*0405 (Homo sapiens, UniProt P01903+P01911, A100R/A169T/D86S/F76Y/I96L/K127E/L162R/M171V/N62H/P40V/Q125Y/R42H/S133A/S149N/S66Y/V115G/V209L/W38E); experiment: HLA-DR radioligand binding inhibition assay, DRB1*0405; settings: read-out: IC50 nM purified HLA DRB1 *0405; purified HLA DRB1*0405
# T2 construct: purified from EBV transformed homozygous cell lines or single MHC allele transfected 721.221, C1R, or fibroblast lines; made in house
# In short: as §1
# [3] = target: T3, purified HLA DRB1*1302 (Homo sapiens, UniProt P01903+P01911, A100E/A169T/K41T/L162R/M171V/P40S/Q125H/Q178H/Q39Y/Q99D/R42S/S66N/T262R/V115G/W38E/Y61H); experiment: HLA-DR radioligand binding inhibition assay, DRB1*1302
# T3 construct: purified from EBV transformed homozygous cell lines or single MHC allele transfected 721.221, C1R, or fibroblast lines; made in house
# In short: as §1
# [4] = target: T4, purified HLA DRB1*0901 (Homo sapiens, UniProt P01903+P01911, A100R/A103E/D57H/D86V/F55Y/F60I/F76Y/I96F/K127E/L162R/M171V/P40D/Q125H/Q99R/R33Q/R42F/S133A/S66N/T210M/V115G/W38K/Y107V/Y59G/Y89S); experiment: HLA-DR radioligand binding inhibition assay, DRB1*0901; settings: read-out: IC50 nM purified HLA DRB1 *0901; purified HLA DRB1*0901
# T4 construct: purified from EBV transformed homozygous cell lines or single MHC allele transfected 721.221, C1R, or fibroblast lines; made in house
# Experimental: Instead, wells of an opaque white 96-well Optiplate (Packard) are coated with 3 μg (100 μl@ 30 μg/ml) of HLA-specific antibody (Ab) that “capture” complexes of radiolabeled MHC and unlabeled peptide transferred from the molecular binding assay plate in 100 μl of 0.05% NP40/PBS. After a 3-hour incubation period, the supernatant is decanted and scintillation fluid (Microscint 20) added. Captured complexes are then measured on a microplate scintillation and luminescence counter (TopCount NXTTM; Packard).
# HLA-DR purification. Fifteen distinct HLA-DR molecules were used in quantitative assays to measure the binding of peptides to solubilized HLA-DR molecules. […] Briefly, columns of inactivated Sepharose CL4B and Protein A Sepharose were used as pre-columns. HLA-DR molecules were captured by passage of lysates over LB3.1 monoclonal antibody (anti-HLA-DRA) columns. Antibody columns were washed with 10 mM Tris-HCL, pH8.0 with 1% (v/v) NP-40, followed by PBS containing 0.4% (w/v) n-octylglucoside.
# Briefly, 1-10 nM of radiolabeled peptide was co-incubated for 2 days at either room temperature or 37° C. with 1 μM to 1 nM purified HLA-DR molecules in the presence of a cocktail of protease inhibitors. Assays were performed at various pH conditions, ranging from pH 4 to pH 7. […] After incubation, the percentage of HLA-DR-bound radioactivity is determined by capturing HLA-DR/peptide complexes on Optiplates (Packard Instruments, Meriden, Conn.) coated with the LB3.1 antibody and determining bound counts per minute using the TopCount microscintillation counter (Packard Instruments).
# [5] = test system: 15 different HLA-DR molecules; experiment: HLA-DR binding assays, panel of 15 different HLA-DR molecules (breadth of binding); settings: number of the 15 HLA-DR molecules bound (binders: 1000 nM or better)
# [6] = test system: peptide-specific T cells in PBMC; experiment: 10-day interferon-gamma ELIspot with PBMC of breast or ovarian cancer patients and healthy controls; assay type: cell-based, human; settings: for Percent of patients with responses: fraction of breast or ovarian cancer patients with mean T cell values above cutoff (mean + 2 SD of healthy donors)
# Description: Each panel represents a unique peptide and each data point is derived from one individual. The grey box (i.e. cutoff) delineates the region that constitutes the mean and two standard deviations calculated from the normal healthy individuals. The percentages represent the fraction of patients that had mean T cell values above the cutoff. The peptides that are circled are those in which a higher fraction of the patients responded compared to the normal healthy controls. These peptides are considered to be the best vaccine candidates. However, it is clear that the rigidness of this approach could potentially result in many false negatives. […] Despite this, we identified 5 candidates to move forward. The fidelity of this approach is evident from a prior study which has already shown that a HER-2/neu peptide, p884-899, which encompasses the binding motif of p885, is an HLA-DR4 epitope.
# Enzyme-linked immunosorbent spot assay. A 10-day ELlspot for detecting low-frequency T cells was used to determine reactivity to the tumor antigen peptides (Table 1) as described (Knutson K L et al. J Clin Onc 2006;24: 4254-61). […] PMA/Ionomycin and the CEF pool were used as positive non-tumor related controls as previously described (Knutson, 2006).
# Using predictive algorithms discussed above, candidate HLA-DR1-binding epitopes were identified. […] An interferon-gamma ELIspot assay was used to assess immunity to the indiscriminate binding peptides in 48 patients with either breast or ovarian cancer and 18 healthy controls.
# Using an ELlspot assay with a limit of detection of approximately […], patient-derived PBMC were screened for reactivity against all of the HLA-DR binding peptides.
# [7] = test system: short term T cell lines from breast or ovarian cancer patients; experiment: IFN-γ ELISpot analysis of short term T cell lines (peptide versus protein fragment; natural processing); assay type: cell-based, human; settings: T cell lines respond to culture peptide and to protein fragment; FIGS. 5 and 6
# Description: IFN-γ ELISpot analysis of short term T cell lines generated against HER-2/neu peptides, p53 (Panel A), p83 (Panel B), p88 (Panel C) and p885 (Panel D). […] Each bar is the mean (s.e.m.) of three replicates.
# FIG. 6 is identical to FIG. 5 except that the results were obtained using IGFBP-2 derived helper epitopes.
SMILES,IC50 [1] [nM],IC50 [2] [nM],IC50 [3] [nM],IC50 [4] [nM],Total XRN [5],Percent of patients with responses [6] [%],"patient response rate on exclusion of one healthy individual with a robust response ([6]; recalculated cutoff, FIG. 1) [%]",naturally processed and presented antigen [7]
CC[C@H](C)[C@H](NC(=O)[C@H](CCCCN)NC(=O)[C@@H](NC(=O)[C@H](Cc1c[nH]cn1)NC(=O)[C@H](CC(N)=O)NC(=O)[C@@H]1CCCN1C(=O)[C@H](CO)NC(=O)[C@H](CCCCN)NC(=O)[C@@H](NC(=O)[C@H](CC(C)C)NC(=O)[C@@H](NC(=O)[C@H](CC(N)=O)NC(=O)[C@H](CCCNC(=N)N)NC(=O)[C@H](C)N)C(C)C)C(C)C)C(C)C)C(=O)N[C@H](C(=O)O)[C@@H](C)O,65,10500,15,5780,–,–,–,–
CC[C@H](C)[C@H](N)C(=O)N[C@@H](CCCCN)C(=O)N[C@@H](Cc1c[nH]c2ccccc12)C(=O)N[C@@H](CCSC)C(=O)N[C@@H](C)C(=O)N[C@@H](CC(C)C)C(=O)N[C@@H](CCC(=O)O)C(=O)N[C@@H](CO)C(=O)N[C@H](C(=O)N[C@@H](CC(C)C)C(=O)N[C@@H](CCCNC(=N)N)C(=O)N[C@@H](CCCNC(=N)N)C(=O)N[C@@H](CCCNC(=N)N)C(=O)N[C@@H](Cc1ccccc1)C(=O)N[C@H](C(=O)O)[C@@H](C)O)[C@@H](C)CC [Peptide 9019.0003],–,–,–,–,10,4,15,–
CC(C)C[C@H](NC(=O)[C@H](CO)NC(=O)[C@H](C)NC(=O)[C@H](CC(N)=O)NC(=O)[C@@H](NC(=O)[C@@H]1CCCN1C(=O)[C@H](CC(C)C)NC(=O)[C@H](Cc1ccc(O)cc1)NC(=O)[C@@H](NC(=O)[C@H](CC(C)C)NC(=O)[C@H](CCC(=O)O)NC(=O)[C@H](CC(C)C)NC(=O)[C@@H](N)CC(N)=O)[C@@H](C)O)[C@@H](C)O)C(=O)N[C@@H](CO)C(=O)N[C@@H](Cc1ccccc1)C(=O)O [Peptide 9019.0030],–,–,–,–,12,15,–,naturally processed and presented antigens
CC[C@H](C)[C@H](NC(=O)[C@@H]1CCCN1)C(=O)N[C@@H](CCCCN)C(=O)N[C@@H](Cc1c[nH]c2ccccc12)C(=O)N[C@@H](CCSC)C(=O)N[C@@H](C)C(=O)N[C@@H](CC(C)C)C(=O)N[C@@H](CCC(=O)O)C(=O)N[C@@H](CO)C(=O)N[C@H](C(=O)N[C@@H](CC(C)C)C(=O)N[C@@H](CCCNC(=N)N)C(=O)N[C@@H](CCCNC(=N)N)C(=O)N[C@@H](CCCNC(=N)N)C(=O)N[C@@H](Cc1ccccc1)C(=O)O)[C@@H](C)CC [Peptide 9019.0087],–,–,–,–,13,25,–,naturally processed and presented antigens
CC[C@H](C)[C@H](NC(=O)[C@@H](NC(=O)[C@H](CC(C)C)NC(=O)[C@H](CCCCN)NC(=O)[C@H](C)NC(=O)[C@@H](NC(=O)[C@@H](NC(=O)[C@@H]1CCCN1C(=O)[C@@H]1CCCN1C(=O)[C@H](CC(N)=O)NC(=O)[C@H](Cc1c[nH]c2ccccc12)NC(=O)[C@H](Cc1ccccc1)NC(=O)[C@@H](NC(=O)[C@H](CC(C)C)NC(=O)[C@@H](N)CC(C)C)[C@@H](C)O)[C@@H](C)O)[C@@H](C)O)[C@@H](C)O)C(=O)O [Peptide 9019.0105],–,–,–,–,10,17,–,–
CC(C)C[C@H](NC(=O)[C@H](CC(N)=O)NC(=O)[C@H](CO)NC(=O)[C@@H](NC(=O)[C@H](Cc1ccccc1)NC(=O)[C@H](CS)NC(=O)[C@H](C)NC(=O)[C@@H](N)Cc1ccc(O)cc1)C(C)C)C(=O)N[C@@H](C)C(=O)N[C@H](C(=O)NCC(=O)N[C@@H](CCCNC(=N)N)C(=O)N[C@@H](CC(N)=O)C(=O)N[C@@H](CC(N)=O)C(=O)N[C@@H](CO)C(=O)O)[C@@H](C)O [Peptide 9019.0141],–,–,–,–,9,25,–,–
"CC[C@H](C)[C@H](NC(=O)[C@H](Cc1c[nH]cn1)NC(=O)[C@H](CC(C)C)NC(=O)[C@H](CO)NC(=O)[C@H](Cc1ccc(O)cc1)NC(=O)[C@H](CC(C)C)NC(=O)[C@H](Cc1c[nH]cn1)NC(=O)[C@H](CCC(=O)O)NC(=O)[C@H](CC(C)C)NC(=O)[C@@H]1CCCN1C(=O)CNC(=O)[C@H](CCCNC(=N)N)NC(=O)[C@@H](N)CCC(=O)O)C(=O)N1CCC[C@H]1C(=O)N[C@@H](CC(N)=O)C(=O)O [Peptide 9019.0190, EROPLEHLYSLHIPN]",–,–,–,–,8,23,–,naturally processed peptides
